Laboratory results reported in US7848888B2, “Method for identification of biologically active agents” (Vitruvean LLC, priority 2002, dated 2010).

How the values were obtained:
flies = conditions: administered orally to flies; cited from earlier work
wild-type flies = assay: Motion tracking with wild-type flies; type: in vivo, Drosophila; conditions: flies fed 0.1M or 0.05M, compared to controls; FIG. 19
Excerpt: In the present exemplary application, to capture a movie of the movement of flies within specimen container 104, robot 114 grabs a specimen container 104 and positions it in front of camera 124. However, before positioning specimen container 104 in front of camera 124, robot 114 first raises specimen container 104 above a distance, such as about 2 centimeters, above base plate 106, then releases specimen container 104, which forces the flies within specimen container 104 to fall down to the bottom of specimen container 104. Robot 114 then grabs specimen container 104 again and positions it to be filmed by camera 124. In one exemplary embodiment, camera 124 captures about 40 consecutive frames at a frame rate of about 10 frames per second. It should be noted, however, that the number of frames captured and the frame rate used can vary. Additionally, the step of dropping specimen container 104 prior to filming can be omitted.
“Movement trait data” as used herein refers to the measurements made of one or more movement traits. Examples of “movement trait data” measurements include, but are not limited to X-pos, X-speed, speed, turning, stumbling, size, T-count, P-count, T-length, Cross150, Cross250, and F-count. Descriptions of these particular measurements are provided below. • X-Pos: The X-Pos score is calculated by concatenating the lists of x-positions for all trajectories and then computing the average of all values in the concatenated list. • X-Speed: The X-Speed score is calculated by first computing the lengths of the x-components of the speed vectors by taking the absolute difference in x-positions for subsequent frames. The resulting lists of x-speeds for all trajectories are then concatenated and the average x-speed for the concatenated list is computed. • Speed: The Speed score is calculated in the same way as the X-Speed score, but instead of only using the length of the x-component of the speed vector, the length of the whole vector is used. […]

[1] = tested on: Drosophila expressing a mutant form of human Huntington (HD); assay: Motion tracking with Drosophila model of Huntington disease; type: in vivo; conditions: HD model with drug vs HD model without drug
Procedure: “Movement trait data” as used herein refers to the measurements made of one or more movement traits. Examples of “movement trait data” measurements include, but are not limited to X-pos, X-speed, speed, turning, stumbling, size, T-count, P-count, T-length, Cross150, Cross250, and F-count. Descriptions of these particular measurements are provided below. • X-Pos: The X-Pos score is calculated by concatenating the lists of x-positions for all trajectories and then computing the average of all values in the concatenated list. • X-Speed: The X-Speed score is calculated by first computing the lengths of the x-components of the speed vectors by taking the absolute difference in x-positions for subsequent frames. The resulting lists of x-speeds for all trajectories are then concatenated and the average x-speed for the concatenated list is computed. • Speed: The Speed score is calculated in the same way as the X-Speed score, but instead of only using the length of the x-component of the speed vector, the length of the whole vector is used. That is, [length]=square root of ([x-length]^2+[y-length]^2). • Turning: The Turning score is calculated in the same way as the Speed score, but instead of using the length of the speed vector, the absolute angle between the current speed vector and the previous one is used, giving a value between 0 and 90 degrees. • Stumbling: The Stumbling score is calculated in the same way as the Speed score, but instead of using the length of the speed vector, the absolute angle between the current speed vector and the direction of body orientation is used, giving a value between 0 and 90 degrees. • Size: The Size score is calculated in the same way as the Speed score, but instead of using the length of the speed vector, the size of the detected fly is used. • T-Count: The T-Count score is the number of trajectories detected in the movie. • P-Count: The P-Count score is the total number of points in the movie (i.e., the number of points in each trajectory, summed over all trajectories in the movie). • T-Length: The T-Length score is the sum of the lengths of all speed vectors in the movie, giving the total length all flies in the movie have walked. • Cross150: The Cross150 score is the number of trajectories that either crossed the line at x=150 in the negative x-direction (from bottom to top of the vial) during the movie, or that were already above that line at the start of the movie. […] In other words this score measures the number of detected flies that either managed to hold on to the tube or that managed to climb above the x=150 line within the length of the movie. • Cross250: The Cross250 score is equivalent to the Cross150 score, but uses a line at x=250 instead. • F-Count: The F-Count score counts the number of detected flies in each individual frame, and then takes the maximum of these values over all frames. […]
Drosophila expressing a mutant form of human Huntington (HD) have a functional deficit that is quantifiable, reproducible, and is suitable for automated high-throughput screening. Drosophila (or specimen) movements can be analyzed for various characteristics and/or traits. For example, statistics on the movements of the specimens, such as the x and y travel distance, path length, speed, turning, and stumbling, can be calculated. […]
Differences between the HD model+/−drug (HDAC inhibitor, TSA) and wild type (control)+/−drug (TSA) can clearly be detected using the motion tracking software. […]

In the case of `CC1(C)O[C@@H]2[C@@H](CO[C@@]3(COS(N)(=O)=O)OC(C)(C)O[C@@H]23)O1` [Topiramate], the “seizure and mean recovery times following seizure” value (flies) is given as “reduce”.

In the case of `O=C1NC(=O)C(c2ccccc2)(c2ccccc2)N1` [Phenytoin], the “seizure and mean recovery times following seizure” value (flies) is listed as “reduce”.

For `[Cl-].[Li+]` [LiCl, Lithium Chloride], the incidence of stumbling (wild-type flies) was “increased incidence”, the incidence of turning (wild-type flies) was “increased incidence” and the speed (wild-type flies) was “significant reduction”.

In the case of `NCC1(CC(=O)O)CCCCC1` [Gabapentin], the “seizure and mean recovery times following seizure” value (flies) is given as “reduce”.

In the case of `CC(/C=C/C(=O)NO)=C\[C@@H](C)C(=O)c1ccc(N(C)C)cc1` [TSA], the Speed score ([1]; p-values, FIG. 21B) is reported as “do not yield significant values”, the Turning score ([1]; p-values, FIG. 21D) is reported as “do not yield significant values” and the Stumbling score ([1]; p-values, FIG. 21F) is reported as “do not yield significant values”. The T-Length score ([1]; p-values, FIG. 21H) was “best highlight the therapeutic effect” and the “motor performance, Cross150 score (climbing ability)” value ([1]; FIG. 20, 21J) was “restore climbing ability for HD flies to almost the same level as for wt flies”.
